US8173131B2, “Compositions and methods for modulating RSV infection and immunity” (PerkinElmer Health Sciences, Inc., priority 2000, dated 2012)
Marks after values point to notes of the source that are not given here.

Assays:
[1] = system: RSV; assay: RSV plaque reduction by small molecule peptide inhibitors on Vero cells (Example II); assay type: cell-based, RSV/A2; conditions: peptide added to heparin 5 μg/ml; in words
Procedure: Vero cells were treated with PBS, RT33, RT34, Δ+1, Δ−1 and EYp1 peptides (100 μm) in the presence (B) or absence of heparin (A) (5 μg/ml). Percentage inhibition was determined by dividing the mean plaque forming units (PFU) of treated Vero cells by the mean PFU of PBS-treated Vero cells.
Different concentrations of the G glycoprotein peptides and/or 5 μg/ml heparin (Sigma) were diluted in Dulbecco's phosphate buffered saline (D-PBS; GIBCO) and added to Vero cell monolayers for 1 h at 37° C. Pre-treated Vero cells were infected with 10^6 PFU of RSV/A2 diluted in serum-free DMEM (GIBCO) for 2 h at 37° C., after which DMEM (GIBCO) containing 10% FBS (Hyclone, Logan, Utah) was added, and the infected cells incubated at 37° C. for 3-4 days. Plaques were enumerated by immunostaining with monoclonal antibodies against the G and F glycoproteins (130-2G and 131-2A, respectively), as described (54,55).

[2] = system: CD3+ BAL cells; assay: Intracellular cytokine expression by CD3+ T cells following in vivo peptide treatment; design: species or system BALB/c mice
Procedure: On day −1, prior to RSV infection, mice were i.p. treated (0.1 ml/mouse) with 100 μM of G glycoprotein peptides RT33 (CWAIC) (SEQ ID NO: 12), RT34 (lacks the CX3C motif) or peptides with changes in the CX3C motif (Δ+1, Δ−1, EYp1). Control mice were treated with PBS containing a similar dilution of DMSO used to solubilize the peptides.
Intracellular cytokine staining was modified for microculture staining as described (55, 57). Briefly, BAL cells were incubated in PBS containing Golgi Stop (Pharmingen) for 3 h at 37° C. to allow for accumulation of intracellular cytokines. The cells were washed in PBS containing 1% bovine serum albumin, blocked with 10% normal mouse sera diluted in PBS containing 1% bovine serum albumin, and stained (4° C., 30 min) with an appropriate dilution of anti-CD3 antibody, fixed and permeabilized in Cytofix/Cytoperm (Pharmingen). The cells were washed in Cytofix/Cytoperm buffer and stained (4° C., 30 min) with appropriate dilutions of anti-IL-2 (JES6-5H4), anti-IL-4 (BVD4-1D11), anti-IL-5 (TRFK5), IL-10 (JES3-16E3), anti-IFNγ (XMG1.2), or anti-TNFα (MP6-XT22) antibodies (Pharmingen) diluted in Cytofix/Cytoperm. Extra- and intracellular staining was analyzed by flow cytometry using a FACScan and Cell Quest software (Becton Dickinson, San Diego, Calif.). Total cytokine expression by CD3+ T cells was determined from the percent cytokine expression of CD3+ T cells and total number of cells recovered. The total number of CD3+ BAL cells expressing a particular cytokine was determined by multiplying the total number of BAL cells by the percent CD3+ cells expressing that particular cytokine.

[3] = system: cell trafficking to the lung (BAL cells); assay: In vivo cell trafficking to the lung of naïve mice after intranasal treatment; design: species or system BALB/c mice
Procedure: FIG. 5A is a bar graph showing leukocyte chemotaxis toward G glycoprotein or fractalkine (Fkn) in the presence or absence of anti-CX3CR1 antibody or normal rabbit sera. The chemotactic index determined from the fold increase of murine leukocyte migration toward the chemoattractant (e.g., Fkn or G glycoprotein) over the leukocyte migration toward the media alone control using modified Boyden chambers. Fkn, G glycoprotein, […] (10 μg) or normal rabbit sera (10 μg) was added to the upper chamber to examine antagonism of cell migration toward the chemoattractant in the lower chamber. FIG. 5B is a bar graph showing cell trafficking to the lung of naïve BALB/c mice intranasally treated with G glycoprotein, fractalkine or G glycoprotein peptides RT32, RT33 or RT34. BAL cells were fixed and stained with H&E. Cell subsets were determined as a percentage of the total BAL cells counted from >200 cells/slide counting two slides for each experiment. The percent cell type represents the median±SE from three separate experiments. * indicates significant difference compared to tissue culture media alone (p<0.05). Naïve BALB/c mice were i.n. treated with 1 μM G glycoprotein or fractalkine or with 1 μM G glycoprotein peptides. The BAL was collected 2 days post-treatment for analysis.
Cell trafficking to the lung in naïve and FI-RSV-immune BALB/c mice was examined following intranasal treatment with either 1 μM fractalkine, RSV G glycoprotein or RSV G peptides. All mice were females purchased from Harlan Sprague Dawley (Indianapolis, Ind.) and maintained at the Centers for Disease Control and Prevention in Atlanta, Ga. FI-RSV-immune mice were immunized in the superficial gluteal muscle using 10^6 pfu equivalents of FI-RSV in accordance with methods known to those skilled in the art. Mice were anesthetized with 2,2,2,-tribromoethanol and intranasally treated with 0.05 ml of either fractalkine, RSV G glycoprotein or peptide diluted in PBS (GIBCO). At day two post-treatment, the mice were anesthetized, exsanguinated by severing the right caudal artery, and the bronchoalveolar (BAL) cells collected in PBS containing 1% BSA (Sigma). BAL cells were blocked with 10% normal mouse sera (Jackson Laboratories, Bar Harbor, Me.) in PBS, and then stained with the appropriate combinations of FITC- or PE-labeled anti-CD3 (145-2C11), anti-CD4 (GK1.5), anti-CD8 (53-6.7), anti-CD11b (M1/70), anti-CD45R/B220 (RA3-6B2), anti-pan NK cell (DX5), anti-neutrophil (RB6-8C5), and mouse isotype Ab controls (all from PharMingen, San Diego, Calif.). The distribution of cell surface markers was determined in two-color mode on a FACScan with CellQUEST software (Becton-Dickinson, Mountain View, Calif.).

[4] = day 3 pi, peptide 24 hours prior to RSV infection
[5] = day 2 post-treatment, lymphocyte gate
[6] = day 2 post-treatment, ungated events
[7] = naïve BALB/c mice, i.n. 1 μM, day 2 post-treatment, median ± SE

| Sequence | Total IC cytokine Expressing CD3^+ BAL cells (×10^3) ± SEM: IFNγ ([2]; day 3 pi) | Total IC cytokine Expressing CD3^+ BAL cells (×10^3) ± SEM: IL-4 ([2]; day 3 pi) | Total IC cytokine Expressing CD3^+ BAL cells (×10^3) ± SEM: IL-5 ([2]; day 3 pi) | Total IC cytokine Expressing CD3^+ BAL cells (×10^3) ± SEM: IL-6 ([2]; day 3 pi) | Total IC cytokine Expressing CD3^+ BAL cells (×10^3) ± SEM: TNFα ([2]; day 3 pi) | Total IC cytokine Expressing CD3^+ BAL cells (×10^3) ± SEM: IL-2 [2, 4] | Total IC cytokine Expressing CD3^+ BAL cells (×10^3) ± SEM: IFNγ ([2]; day 5 pi) | Total IC cytokine Expressing CD3^+ BAL cells (×10^3) ± SEM: IL-2 ([2]; day 5 pi) | Total IC cytokine Expressing CD3^+ BAL cells (×10^3) ± SEM: IL-4 ([2]; day 5 pi) | Total IC cytokine Expressing CD3^+ BAL cells (×10^3) ± SEM: IL-5 ([2]; day 5 pi) | Total IC cytokine Expressing CD3^+ BAL cells (×10^3) ± SEM: IL-6 ([2]; day 5 pi) | Total IC cytokine Expressing CD3^+ BAL cells (×10^3) ± SEM: TNFα ([2]; day 5 pi) | Total IC cytokine Expressing CD3^+ BAL cells (×10^3) ± SEM: IFNγ ([2]; day 7 pi) | Total IC cytokine Expressing CD3^+ BAL cells (×10^3) ± SEM: IL-2 ([2]; day 7 pi) | Total IC cytokine Expressing CD3^+ BAL cells (×10^3) ± SEM: IL-4 ([2]; day 7 pi) | Total IC cytokine Expressing CD3^+ BAL cells (×10^3) ± SEM: IL-5 ([2]; day 7 pi) | Total IC cytokine Expressing CD3^+ BAL cells (×10^3) ± SEM: IL-6 ([2]; day 7 pi) | Total IC cytokine Expressing CD3^+ BAL cells (×10^3) ± SEM: TNFα ([2]; day 7 pi) | Total IC cytokine Expressing CD3^+ BAL cells (×10^3) ± SEM: IFNγ ([2]; day 14 pi) | Total IC cytokine Expressing CD3^+ BAL cells (×10^3) ± SEM: IL-2 ([2]; day 14 pi) | also measured |
| --- | --- | --- | --- | --- | --- | --- | --- | --- | --- | --- | --- | --- | --- | --- | --- | --- | --- | --- | --- | --- | --- |
| TCWAIACKRIPNK [Δ + 1] | 18 ± 2.2 ×10^3 | 18 ± 2.3 ×10^3 | 23 ± 2.9 ×10^3 | 21 ± 2.8 ×10^3 | 19 ± 2.5 ×10^3 | 15 ± 2.0 ×10^3 | 17 ± 5.3 ×10^3 | 16 ± 5.1 ×10^3 | 20 ± 6.2 ×10^3 | 23 ± 7.2 ×10^3 | 21 ± 6.5 ×10^3 | 21 ± 6.8 ×10^3 | 5.6 ± 1.6 ×10^3 | 7.5 ± 2.2 ×10^3 | 5.8 ± 1.7 ×10^3 | 9.9 ± 2.9 ×10^3 | 11 ± 3.3 ×10^3 | 15 ± 2.9 ×10^3 | 11 ± 3.5 ×10^3 | 10 ± 3.2 ×10^3 | effect of adding peptide to heparin on plaque reduction [1]: no effect above heparin treatment alone; Total IC cytokine Expressing CD3^+ BAL cells (×10^3) ± SEM: IL-4 ([2]; day 14 pi): 14 ± 4.2 ×10^3; Total IC cytokine Expressing CD3^+ BAL cells (×10^3) ± SEM: IL-5 ([2]; day 14 pi): 16 ± 4.9 ×10^3; Total IC cytokine Expressing CD3^+ BAL cells (×10^3) ± SEM: IL-6 ([2]; day 14 pi): 12 ± 3.7 ×10^3; Total IC cytokine Expressing CD3^+ BAL cells (×10^3) ± SEM: TNFα ([2]; day 14 pi): 15 ± 4.7 ×10^3 |
| TCWAICKRIPNK [RT33] | 24 ± 5.6 ×10^3 | 24 ± 6.0 ×10^3 | 22 ± 5.6 ×10^3 | 27 ± 6.8 ×10^3 | 28 ± 7.0 ×10^3 | 26 ± 6.5^c ×10^3 | 8.0 ± 1.0 ×10^3 | 9.0 ± 1.1 ×10^3 | 11 ± 1.3 ×10^3 | 12 ± 1.5 ×10^3 | 9.0 ± 1.2 ×10^3 | 9.0 ± 1.1 ×10^3 | 3.6 ± 0.5 ×10^3 | 2.4 ± 0.3 ×10^3 | 2.3 ± 0.3 ×10^3 | 5.2 ± 0.7 ×10^3 | 5.8 ± 0.8 ×10^3 | 13 ± 0.8 ×10^3 | 6.5 ± 2.1 ×10^3 | 3.0 ± 1.0 ×10^3 | Percentage of cells from BAL determined by flow cytometry: B220 [3, 5]: 4 ± 2%; Percentage of cells from BAL determined by flow cytometry: CD4 [3, 5]: 10 ± 2%; Percentage of cells from BAL determined by flow cytometry: CD8 [3, 5]: 4 ± 2%; Percentage of cells from BAL determined by flow cytometry: CD11b [3, 6]: 10 ± 4%; Percentage of cells from BAL determined by flow cytometry: DX5 [3, 6]: 10 ± 2%; Percentage of cells from BAL determined by flow cytometry: RB6-8C5 [3, 6]: 12 ± 2%; Percentage of cells from BAL determined by H&E stain: Eosinophil [3, 7]: 0 ± 0%; Percentage of cells from BAL determined by H&E stain: Lymphocyte [3, 7]: 4 ± 2%; Percentage of cells from BAL determined by H&E stain: Macrophage [3, 7]: 76 ± 8%; Percentage of cells from BAL determined by H&E stain: PMN [3, 7]: 16 ± 6%; mean BAL cell numbers (±SEM) recovered ([3]; naïve BALB/c mice, intranasal 1 μM, 48 hours post-treatment): 3.5 (±0.3) ×10^5 cells/ml; Total IC cytokine Expressing CD3^+ BAL cells (×10^3) ± SEM: IL-4 ([2]; day 14 pi): 8.2 ± 2.7 ×10^3; Total IC cytokine Expressing CD3^+ BAL cells (×10^3) ± SEM: IL-5 ([2]; day 14 pi): 5.3 ± 1.7 ×10^3; Total IC cytokine Expressing CD3^+ BAL cells (×10^3) ± SEM: IL-6 ([2]; day 14 pi): 4.7 ± 1.5 ×10^3; Total IC cytokine Expressing CD3^+ BAL cells (×10^3) ± SEM: TNFα ([2]; day 14 pi): 8.7 ± 2.6 ×10^3 |
| TCWACKRIPNK (TCWAIACKRIPNK) [Δ − 1] | 47 ± 15 ×10^3 | 47 ± 15 ×10^3 | 49 ± 16 ×10^3 | 51 ± 17 ×10^3 | 55 ± 17 ×10^3 | 46 ± 15 ×10^3 | 10 ± 1.6 ×10^3 | 11 ± 1.7 ×10^3 | 13 ± 1.9 ×10^3 | 15 ± 2.2 ×10^3 | 13 ± 2.0 ×10^3 | 18 ± 2.7 ×10^3 | 4.7 ± 0.7 ×10^3 | 3.5 ± 0.5 ×10^3 | 2.8 ± 0.4 ×10^3 | 4.2 ± 0.6 ×10^3 | 6.3 ± 1.0 ×10^3 | 12 ± 0.7 ×10^3 | 10 ± 1.2 ×10^3 | 8.7 ± 1.0 ×10^3 | effect of adding peptide to heparin on plaque reduction [1]: no effect above heparin treatment alone; Total IC cytokine Expressing CD3^+ BAL cells (×10^3) ± SEM: IL-4 ([2]; day 14 pi): 12 ± 1.4 ×10^3; Total IC cytokine Expressing CD3^+ BAL cells (×10^3) ± SEM: IL-5 ([2]; day 14 pi): 14 ± 1.7 ×10^3; Total IC cytokine Expressing CD3^+ BAL cells (×10^3) ± SEM: IL-6 ([2]; day 14 pi): 13 ± 1.6 ×10^3; Total IC cytokine Expressing CD3^+ BAL cells (×10^3) ± SEM: TNFα ([2]; day 14 pi): 11 ± 1.4 ×10^3 |
